Experimental data reported in patent US10308644B2, “Heterocyclic compounds as immunomodulators” (Incyte Corporation, priority 2016, dated 2019).

biological target: PD-1/PD-L1 (Homo sapiens (Human), UniProt Q9NZQ7); experiment: PD-1/PD-L1 Homogeneous Time-Resolved Fluorescence (HTRF) Binding Assay; settings: recombinant human PD-1 (3 nM) and PD-L1 (10 nM), 25° C., PBS pH 7.4
Procedure, shortened: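 Fc-tagged human PD-1 (25-167, 3 nM) and His-tagged PD-L1 (19-238, 10 nM) preincubated with inhibitor 40 min in PBS pH 7.4, 0.05% Tween-20, 0.1% BSA, 1% DMSO, 25 °C. Binding detected by HTRF (Eu anti-IgG/APC anti-His, 665/620 nm) after 60 min; IC50 from percent control activity.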

Sequence of PD-1/PD-L1 (Q9NZQ7 19-238): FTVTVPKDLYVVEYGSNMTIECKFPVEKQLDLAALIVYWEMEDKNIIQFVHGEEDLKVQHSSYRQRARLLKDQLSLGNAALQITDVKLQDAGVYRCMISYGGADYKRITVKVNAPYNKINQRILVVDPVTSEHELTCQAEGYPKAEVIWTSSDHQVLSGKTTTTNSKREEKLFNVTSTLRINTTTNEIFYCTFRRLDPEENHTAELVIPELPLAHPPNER

SMILES | IC50 [nM]
Cc1c(Nc2nccc3cc(CN4CC[C@H](O)C4)cnc23)cccc1-c1cccc(-c2nc3cc(CN4CCCC[C@H]4C(=O)O)cc(C#N)c3o2)c1C [Example 27, (S)-1-((7-cyano-2-(3′-(3-(((S)-3-hydroxypyrrolidin-1-yl)methyl)-1,7-naphthyridin-8-ylamino)-2,2′-dimethylbiphenyl-3-yl)benzo[d]oxazol-5-yl)methyl)piperidine-2-carboxylic acid] | ≤ 10
Cc1c(Nc2ncnc3cc(CN4CC[C@@H](O)C4)cnc23)cccc1-c1cccc(-c2nc3cc(CN4CC[C@@H](C(=O)O)C4)cc(C#N)c3o2)c1C [Example 139, (R)-1-((7-cyano-2-(3′-(7-(((R)-3-hydroxypyrrolidin-1-yl)methyl)pyrido[3,2-d]pyrimidin-4-ylamino)-2,2′-dimethylbiphenyl-3-yl)benzo[d]oxazol-5-yl)methyl)pyrrolidine-3-carboxylic acid] | ≤ 10
Cc1c(Nc2nccc3cc(CN4CCC(C(=O)O)CC4)cnc23)cccc1-c1cccc(-c2nc3cc(CNC[C@H](C)O)cc(C#N)c3o2)c1C [Example 212, (S)-1-((8-(3′-(7-cyano-5-((2-hydroxypropylamino)methyl)benzo[d]oxazol-2-yl)-2,2′-dimethylbiphenyl-3-ylamino)-1,7-naphthyridin-3-yl)methyl)piperidine-4-carboxylic acid] | ≤ 10
CCN1CCc2c(nc(C(=O)Nc3cccc(-c4cccc(-c5nc6cc(CN7CC[C@@H](C(=O)O)C7)cc(C#N)c6o5)c4C)c3Cl)n2C)C1 [Example 143, (R)-1-((2-(2′-chloro-3′-(5-ethyl-1-methyl-4,5,6,7-tetrahydro-1H-imidazo[4,5-c]pyridine-2-carboxamido)-2-methyl-[1,1′-biphenyl]-3-yl)-7-cyanobenzo[d]oxazol-5-yl)methyl)pyrrolidine-3-carboxylic acid] | ≤ 10
Cc1c(Nc2nccc3cc(CN4CC[C@@H](O)C4)cnc23)cccc1-c1cccc(-c2nc3cc(CN4CC[C@H](C(=O)O)C4)cc(C#N)c3o2)c1C [Example 28, (S)-1-((7-cyano-2-(3′-(3-(((R)-3-hydroxypyrrolidin-1-yl)methyl)-1,7-naphthyridin-8-ylamino)-2,2′-dimethylbiphenyl-3-yl)benzo[d]oxazol-5-yl)methyl)pyrrolidine-3-carboxylic acid] | ≤ 10

Continued, values first:

IC50 [nM] | SMILES
≤ 10 | Cc1c(-c2nc3cc(CN4CC[C@@H](C(=O)O)C4)cc(Cl)c3o2)cccc1-c1cccc(N2CCC(N[C@H]3C[C@@H](O)C3)CC2)c1Cl [Example 45, (R)-1-((7-chloro-2-(2′-chloro-3′-(4-((1s,3s)-3-hydroxycyclobutylamino)piperidin-1-yl)-2-methylbiphenyl-3-yl)benzo[d]oxazol-5-yl)methyl)pyrrolidine-3-carboxylic acid]
≤ 10 | Cc1c(-c2nc3cc(CN4CC5(CC(C(=O)O)C5)C4)cc(C#N)c3o2)cccc1-c1cccc(-c2nc3c(s2)CN(C(=O)CN2CC[C@H](O)C2)C3)c1C [Example 233, 2-((7-cyano-2-(3′-(5-(2-((S)-3-hydroxypyrrolidin-1-yl)acetyl)-5,6-dihydro-4H-pyrrolo[3,4-d]thiazol-2-yl)-2,2′-dimethylbiphenyl-3-yl)benzo[d]oxazol-5-yl)methyl)-2-azaspiro[3.3]heptane-6-carboxylic acid]
≤ 10 | Cc1c(-c2nc3c(o2)CN(C(=O)CN(C)C)C3)cccc1-c1cccc(-c2nc3cc(CN4CC[C@@H](C(=O)O)C4)cc(C#N)c3o2)c1C [Example 122, (R)-1-((7-cyano-2-(3′-(5-(dimethylglycyl)-5,6-dihydro-4H-pyrrolo[3,4-d]oxazol-2-yl)-2,2′-dimethyl-[1,1′-biphenyl]-3-yl)benzo[d]oxazol-5-yl)methyl)pyrrolidine-3-carboxylic acid]
